Test results from patent US7157092B1, “Acyl pseudodipeptides, preparation method and pharmaceutical compositions containing same” (Om Pharma, priority 1998, dated 2007).
Several values for one entry are separate records, joined by “and”; a condition that tells them apart may be missing. Equal values may be shown once. Read-outs that look alike come from different tables or passages of the source.

Tests used:
monocytes and DC-6 cells = test: IL-12 p70 production by monocytes and DC-6 cells (ELISA); details: 10 μg/ml, in presence of γ IFN; FIGS. 11, 12
[1] = tested on: predendritic cells (DC-6); test: Dendritic cell maturation: FITC-Dextran conjugate incorporation; details: 0.02% g to 25 μg per ml; FIGS. 4, 5
ovalbumin = test: Subcutaneous immunization with ovalbumin antigen: specific serum immunoglobulins (ELISA); assay type: in vivo, BALB/c mice; details: for Immunoglobulins specifically raised against ovalbumin of IgG1 subclass / Immunoglobulins specifically raised against ovalbumin of IgG2a subclass / Immunoglobulins specifically raised against ovalbumin of IgM subclass: s.c. injections days 0 and 14, ovalbumin 50 μg, adjuvant 50 μg per injection, ± SD; for adjuvant effect on titer of antibodies specifically raised against ovalbumin: IgG1 and IgG2a subclasses, after one or two injections, FIGS. 25-27
Method: To this end, 50 BALB/c mice (females, aged 8 weeks at the beginning of treatment) were divided into 5 groups as follows:
Antigen: An ovalbumin stock solution is prepared at a concentration of 0.5 mg/ml in 0.9% NaCl.
The negative control consists of a 0.9% NaCl solution without antigen.
Antigen-Adjuvant mixture: Adjuvants are allowed to stand for 20 minutes at 37° C. before vortex treatment for 3 minutes. Then the antigen and (0.9%) NaCl are added as specified in the above Table, and the antigen/adjuvant mixture is vortexed briefly before placing it on a rotary stirrer for 15 minutes at room temperature, then the whole mixture is vortexed for 3 minutes.
Immunization regimen: Injections are scheduelled on days 0 and 14. The mixtures stated in the preceeding table are administered by subcutaeous route (75 μl on the side, 150 μl in total per animal). Blood sampling is scheduelled on days 14 and 28 (orbital puncture).
Assay for anti-ovalbumin immunoglobulins: The following serum Immunolglobulins which are specifically directed against ovalbumin are assayed in duplicate by ELISA: IgG1, IgG2a, and IgM. Briefly stated, microtiter plates (NUNC Immunoplate, Roskilde, DK) are incubated (overnight coating) at 40C together with 100 μl ovalbumin (0.5 μg) in bicarbonate buffer pH 9.6). After washing with 0.5% Tween-20 (Merck Hohenbrunn, D), sera are diluted 50-, 200- and 800-fold (diluting solution: phosphate buffered saline (PBS)+1% bovine serum albumin (BSA, Sigma, St. Louis, Mo., USA)+0.02% Tween-20)). 100 μl of each dilute serum sample are added to the wells. Incubation lasts 45 minutes at 37° C.
After a second washing step, IgG1, IgG2a and IgM specifically directed to ovalbumin are incubated for 30 minutes at 37° C. together with 100 μl of anti-IgG1 antibodies (anti-mouse rat antibody)-peroxydase conjugate (Serotec, Oxford, UK), IgG2a-peroxydase conjugate (Pharmingen, San Diego, Calif., USA) and IgM-biotin conjugate (Pharmingen, San Diego, Calif., USA), diluted beforehand in PBS/BSA/Tween buffer (250-, 1000-, 500-fold dilutions, respectively). For IgM, after an extra washing step, a 3rd incubation step is required (30 min. at 37° C.) with a 1:100 dilute solution of streptavidin-peroxydase conjugate (Dako, Glostrup, DK).
After the washing step, 100 μl of a phenylene 1,2-diamine solution (OPD, Merck, Darmstadt, GFR) are added to detect peroxydase-coupled anti-IgG1 and anti-IgG2 secondary antibodies (whereas for IgM, the reagent being used is 3′, 3′, 5′,5′-tetramethylbenzidine (TMB, Sigma, St. Louis, Mo., USA). After a 20 minute incubation period at room temperature, the reaction is stopped by adding 100 μl of 2N H2SO4. Absorbance values are read at 490 nm with a Bio-Rad 3550 model plate reader
Results of each reading at 490 nm are given in arbitrary units (A.U.) per ml. This is achieved by comparing each sample with a standard prepared from different dilutions of a sample pool collected from group B at day 28 (animals injected with ovalbumin alone). As clearly understood by this term, the sample pool diluted 50-fold is at a concentration of 1000 A.U./ml. Individual results are then corrected for the corresponding dilution factor (50, 200, or 800 times). Only the mean values of each group and the standard deviation (SD) are herein reported.

LmCPb antigen [2] = assay type: in vivo, CBA mice; details: for extent of proliferation, times higher than cultures from mice administered antigen alone (without adjuvant): in presence of LmCPb (15 μg/ml)
LmCPb antigen [3] = test: Primary response to single injection of LmCPb antigen: in vitro cytokine secretion by lymph node lymphocytes (ELISA); assay type: in vivo, CBA mice; details: single injection LmCPb + adjuvant
Method: CBA mice were administered through the tail a single injection of LmCPb in a 2 μg dose either in combination or not with 50 μg of OM-294-MP adjuvant. A control group was administered one injection of physiological saline buffer (non immunized subjects). Eleven days later, cells of the inguinal and periaortic lymph nodes (groups of 3 mice each) were cultured and the proliferative response directed to the purified LmCPb antigen, to a preparation of whole amastigotes of Leishmania mexicana and to concanvalin A (ConA) was evaluated by measuring tritiated thymidine take-up (^3H-TdR). γ IFN and IL-4 cytokine production by lymph node lymphocytes rechallenged in vitro with LmCPb antigen of Leishmania mexicana or by amastigotes was equally determined by ELISA (MIF00 γ IFN & M4000 IL-4 kits, R&D Systems Europe Ltd, Abingdon, UK) using a sample of each culture supernatant of lymph node lymphocytes before addition of ^3H-TdR.
Values reported in the tables stand for the mean value±standard deviation (triplicate) expressed in cpm for ^3H-TdR take-up and the arithmetic mean±standard deviation (triplicate) expressed in pg per ml for cytokine production in supernatant fluids.
Antigen: LmCPb stock solution is prepared at a concentration of 40 μg/ml in PBS (2×).
The negative control consists of a PBS solution without antigen.
Antigen-adjuvant mixture: Adjuvants are maintained for 10 minutes at 37° C. before vortexing for 3 minutes. Then, the antigen (1 volume) and the adjuvant (1 volume) are mixed and vortexed briefly before being incubated for 20 minutes at 37° C., and finally the whole mixture is vortexed again for 3 minutes.

UreB 1-569 = test: Nasal immunization with urease B subunit of Heliobacter pylori: serum anti-UreB immunoglobulins (ELISA); assay type: in vivo, BALB/c mice; details: 4 times weekly, 25 μg OM-294-DP alone
LmCPb antigen [4] = assay type: in vivo, CBA mice; details: 2 injections LmCPb with adjuvant
[5] = 2 injections LmCPb 3–5 μg with 2×50 μg OM adjuvant or 200 μg BCG, in vitro: No stimulant
[6] = 2 injections LmCPb with adjuvant, in vitro: Amastigotes 2 × 10^−6/ml
[7] = 2 injections LmCPb with adjuvant, in vitro: Amastigotes 6 × 10^−6/ml
[8] = 2 injections LmCPb with adjuvant, in vitro: Amastigotes 17 × 10^−6/ml
[9] = 2 injections LmCPb with adjuvant, in vitro: Con A 5 μg/ml
[10] = 2 injections LmCPb with adjuvant, in vitro: LmCPb 0.6 μg/ml
[11] = 2 injections LmCPb with adjuvant, in vitro: LmCPb 1.7 μg/ml
[12] = 2 injections LmCPb with adjuvant, in vitro: LmCPb 5 μg/ml
[13] = 2 injections LmCPb with adjuvant, in vitro: LmCPb 15 μg/ml
[14] = in vitro: Amastigotes 17 × 10^−6/ml

For CCCCCCCCCCCC(=O)O[C@H](CCCCCCCCCCC)CC(=O)NC(CCOP(=O)(O)O)C(=O)NCCCC(CO)NC(=O)C[C@H](O)CCCCCCCCCCC (stereo partly drawn) [OM-294-MP, 3-[(R)-3-dodecanoyloxytetradecanoylamino]-4-oxo-5-aza-9-[(R)-3-hydroxytetradecanoylamino]-decane-1,10-diol 1-dihydrogenphosphate], the “IL-12 p70 production in monocytes and DC-6 cells” value (monocytes and DC-6 cells) was “induced in presence of γ IFN”, the “differenciation of DC-6 into DC-9 cells (dose vs. response of FITC-Dextran incorporation)” value [1] was “outstanding capacity to induce differenciation of DC-6 into DC-9 cells” and the “Immunoglobulins specifically raised against ovalbumin of IgG1 subclass” value (ovalbumin; Day 14) was 19 ± 8 Arbitrary units/ml. The “Immunoglobulins specifically raised against ovalbumin of IgG2a subclass” value (ovalbumin; Day 14) was 11253 ± 12169 Arbitrary units/ml, the “Immunoglobulins specifically raised against ovalbumin of IgM subclass” value (ovalbumin; Day 14) was 19742 ± 5667 Arbitrary units/ml and the “Immunoglobulins specifically raised against ovalbumin of IgG1 subclass” value (ovalbumin; Day 28) was 40 ± 69 Arbitrary units/ml. The “Immunoglobulins specifically raised against ovalbumin of IgG2a subclass” value (ovalbumin; Day 28) was 4192 ± 2104 Arbitrary units/ml, the “Immunoglobulins specifically raised against ovalbumin of IgM subclass” value (ovalbumin; Day 28) was 9827 ± 2021 Arbitrary units/ml and the “adjuvant effect on titer of antibodies specifically raised against ovalbumin” value (ovalbumin) was “significantly increase”. The 3H-TdR take-up (LmCPb antigen [2]; [5]) was 17.1 ± 2.5 cpm × 10^−3/ml, the 3H-TdR take-up (LmCPb antigen [2]; [6]) was 28.4 ± 8.3 cpm × 10^−3/ml and the 3H-TdR take-up (LmCPb antigen [2]; [7]) was 66.1 ± 4.5 cpm × 10^−3/ml. The 3H-TdR take-up (LmCPb antigen [2]; [8]) was 68.7 ± 2.3 cpm × 10^−3/ml, the 3H-TdR take-up (LmCPb antigen [2]; [9]) was 151.4 ± 3.7 cpm × 10^−3/ml and the 3H-TdR take-up (LmCPb antigen [2]; [10]) was 22.9 ± 2.8 cpm × 10^−3/ml. The 3H-TdR take-up (LmCPb antigen [2]; [11]) was 34.1 ± 4.1 cpm × 10^−3/ml, the 3H-TdR take-up (LmCPb antigen [2]; [12]) was 70.3 ± 6.4 cpm × 10^−3/ml and the 3H-TdR take-up (LmCPb antigen [2]; [13]) was 124.2 ± 12.0 cpm × 10^−3/ml. The “extent of proliferation, times higher than cultures from mice administered antigen alone (without adjuvant)” value (LmCPb antigen [2]) was 23 times, the “γ IFN production” value (LmCPb antigen [3]; in vitro: Amastigotes) was 320 pg/mL and the IL-4 production (LmCPb antigen [3]; in vitro: Amastigotes 17 × 10^−5/ml) was 65 pg/mL. For the same compound, the IL-4 production (LmCPb antigen [3]; in vitro: Con A 5 μg/ml) was 360 pg/mL, the “γ IFN production” value (LmCPb antigen [3]; in vitro: Con A 5 μg/ml) was over 1800 pg/mL and the IL-4 production (LmCPb antigen [3]; in vitro: LmCPb 15 μg/ml) was 130 pg/mL. The “γ IFN production” value (LmCPb antigen [3]; in vitro: LmCPb 15 μg/ml) was 480 pg/mL, the IL-4 production (LmCPb antigen [3]; in vitro: No challenge) was under 8 pg/mL and the “γ IFN production” value (LmCPb antigen [3]; in vitro: No stimulant) was 25 pg/mL.

In the case of CCCCCCCCCCCC(=O)O[C@H](CCCCCCCCCCC)CC(=O)NC(CCOP(=O)(O)O)C(=O)NCCCC(COP(=O)(O)O)NC(=O)C[C@H](O)CCCCCCCCCCC (stereo partly drawn) [OM-294-DP, 3-[(R)-3-dodecanoyloxytetradecanoylamino]-4-oxo-5-aza-9-[(R)-3-hydroxytetradecanoylamino]decan-1,10-diol 1, 10-bis(dihydrogenphosphate)], the “anti-UreB antibodies in serum” value (UreB 1-569) is reported as “No anti-UreB antibodies are detected”, the “adjuvant effect on titer of antibodies specifically raised against ovalbumin” value (ovalbumin) is reported as “significantly increase” and the 3H-TdR take-up (LmCPb antigen [2]; [5]) is reported as 21.8 ± 2.2 cpm × 10^−3/ml. It also gave a 3H-TdR take-up (LmCPb antigen [2]; [6]) of 61.0 ± 1.7 cpm × 10^−3/ml, a 3H-TdR take-up (LmCPb antigen [2]; [7]) of 81.5 ± 5.5 cpm × 10^−3/ml and a 3H-TdR take-up (LmCPb antigen [2]; [8]) of 78.2 ± 7.8 cpm × 10^−3/ml. It also gave a 3H-TdR take-up (LmCPb antigen [2]; [9]) of 135.9 ± 3.7 cpm × 10^−3/ml, a 3H-TdR take-up (LmCPb antigen [2]; [10]) of 40.9 ± 12.7 cpm × 10^−3/ml and a 3H-TdR take-up (LmCPb antigen [2]; [11]) of 57.2 ± 10.9 cpm × 10^−3/ml. For the same compound, the 3H-TdR take-up (LmCPb antigen [2]; [12]) was 70.2 ± 9.2 cpm × 10^−3/ml, the 3H-TdR take-up (LmCPb antigen [2]; [13]) was 100.0 ± 6.5 cpm × 10^−3/ml and the “extent of proliferation, times higher than cultures from mice administered antigen alone (without adjuvant)” value (LmCPb antigen [2]) was 28 times. For the same compound, the IL-4 concentration (LmCPb antigen [4]; [14]) was 130 pg/mL and 110 pg/mL, the “γ IFN concentration” value (LmCPb antigen [4]; [14]) was over 600 pg/mL and the “γ IFN concentration” value (LmCPb antigen [4]; in vitro: Con A 5 μg/ml) was 1200 pg/mL and 1900 pg/mL. For the same compound, the IL-4 concentration (LmCPb antigen [4]; in vitro: LmCPb 15 μg/ml) was 110 pg/mL and 88 pg/mL, the “γ IFN concentration” value (LmCPb antigen [4]; in vitro: LmCPb 15 μg/ml) was 520 pg/mL and 360 pg/mL and the IL-4 concentration (LmCPb antigen [4]; in vitro: No stimulant) was under 8 pg/mL. For the same compound, the “γ IFN concentration” value (LmCPb antigen [4]; in vitro: No stimulant) was 460 pg/mL and 240 pg/mL.
